This is an account of results in the supplement of paper PMC10307832.

Assay in all cases: relative viability (nuclei count vs DMSO), 5 days (fraction); higher = more cells survive
Compound in assay [1]: C[C@]1(O)C[C@@H](c2nc(-c3ccc4ccc(-c5ccccc5)nc4c3)c3c(N)nccn32)C1 [Linsitinib] + Nc1nc2[nH]cc(CCc3ccc(C(=O)N[C@@H](CCC(=O)O)C(=O)O)cc3)c2c(=O)[nH]1 [Pemetrexed] (partner 0.2 µM)
The method, boiled down: (§1)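 Nuclei were stained with Hoechst during a one-step fixation (final 0.05% Triton X-100, 1% formaldehyde, 1 ug/ml Hoechst) carried out 5 days after dosing, then counted on 4× images. The cells, lung cancer lines in 1536-well plates, had been dosed by pin tool the day after seeding with one drug alone or a fixed anchor-drug dose plus five library-drug doses (not always all listed) in √10 steps. Relative viability is the nuclei count in treated wells divided by that in vehicle wells, and each value is the median of duplicate plates.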

Compound in assay [2]: C[C@]1(O)C[C@@H](c2nc(-c3ccc4ccc(-c5ccccc5)nc4c3)c3c(N)nccn32)C1 [Linsitinib] + CC(=O)Nc1cccc(-n2c(=O)n(C3CC3)c(=O)c3c(Nc4ccc(I)cc4F)n(C)c(=O)c(C)c32)c1 [Trametinib] (partner 0.02 µM)
Summed up: as §1

Compound in assay [3]: C[C@]1(O)C[C@@H](c2nc(-c3ccc4ccc(-c5ccccc5)nc4c3)c3c(N)nccn32)C1 [Linsitinib] + CC(=O)c1c(C)c2cnc(Nc3ccc(N4CCNCC4)cn3)nc2n(C2CCCC2)c1=O [Palbociclib] (partner 0.5 µM)
The method, boiled down: as §1

Compound in assay [4]: Cc1ccc(C(=O)N(CCCN)[C@@H](c2nc3cc(Cl)ccc3c(=O)n2Cc2ccccc2)C(C)C)cc1 [Ispinesib] + CCNC(=O)c1noc(-c2cc(C(C)C)c(O)cc2O)c1-c1ccc(CN2CCOCC2)cc1 [Luminespib] (partner 0.01 µM)
Summed up: as §1

As to NCI-H1355, the relative viability turned out to be 1.11 in assay [1] (first compound 0.01 µM); 0.759 in assay [1] (first compound 0.03162 µM); 0.945 in assay [1] (first compound 0.1 µM); 0.798 in assay [1] (first compound 0.3162 µM); 0.637 in assay [1] (first compound 1 µM); 0.424 in assay [2] (first compound 0.01 µM). Further, the relative viability in assay [2] (first compound 0.03162 µM) amounted to 0.353; in assay [2] (first compound 0.1 µM), 0.352; in assay [2] (first compound 0.3162 µM), 0.323; in assay [2] (first compound 1 µM), 0.246; in assay [3] (first compound 0.01 µM) it was 0.384; in assay [3] (first compound 0.03162 µM) it was 0.345. Moreover, the relative viability in assay [3] (first compound 0.1 µM) amounted to 0.309; in assay [3] (first compound 0.3162 µM), 0.308; in assay [3] (first compound 1 µM), 0.269; in assay [4] (first compound 0.001 µM), 0.702; in assay [4] (first compound 0.003162 µM) it was 0.729; in assay [4] (first compound 0.01 µM) it was 0.881. The values for the relative viability in assay [4] (first compound 0.03162 µM) and in assay [4] (first compound 0.1 µM) were 0.598 and 0.488, respectively.
Regarding NCI-H1792, the relative viability was determined as 1.05 in assay [1] (first compound 0.01 µM); 0.695 in assay [1] (first compound 0.03162 µM); 0.891 in assay [1] (first compound 0.1 µM); 0.51 in assay [1] (first compound 0.3162 µM); 0.321 in assay [1] (first compound 1 µM); 0.506 in assay [2] (first compound 0.01 µM). For the same cell line, the relative viability came out at 0.432 in assay [2] (first compound 0.03162 µM); 0.335 in assay [2] (first compound 0.1 µM); 0.32 in assay [2] (first compound 0.3162 µM); 0.335 in assay [2] (first compound 1 µM); 0.712 in assay [3] (first compound 0.03162 µM); 0.527 in assay [3] (first compound 0.1 µM). For the same cell line, the relative viability in assay [3] (first compound 0.3162 µM) was found to be 0.599; in assay [3] (first compound 1 µM), 0.375; in assay [4] (first compound 0.001 µM), 0.821; in assay [4] (first compound 0.003162 µM) it was 0.435; in assay [4] (first compound 0.01 µM), 0.705; in assay [4] (first compound 0.03162 µM), 0.443. The relative viability in assay [4] (first compound 0.1 µM) worked out at 0.471.
As to NCI-H1944, the relative viability in assay [1] (first compound 0.01 µM) is 0.597; in assay [1] (first compound 0.03162 µM), 0.574; in assay [1] (first compound 0.1 µM) it was 0.661; in assay [1] (first compound 0.3162 µM) it was 0.426; in assay [1] (first compound 1 µM) it was 0.492; in assay [2] (first compound 0.01 µM), 0.395. The relative viability in assay [2] (first compound 0.03162 µM) came out at 0.465; in assay [2] (first compound 0.1 µM), 0.381; in assay [2] (first compound 0.3162 µM) it was 0.356; in assay [2] (first compound 1 µM), 0.346; in assay [3] (first compound 0.01 µM), 0.398; in assay [3] (first compound 0.03162 µM), 0.418. Also, the relative viability worked out at 0.286 in assay [3] (first compound 0.1 µM); 0.303 in assay [3] (first compound 0.3162 µM); 0.296 in assay [3] (first compound 1 µM); 0.75 in assay [4] (first compound 0.001 µM); 0.781 in assay [4] (first compound 0.003162 µM); 0.968 in assay [4] (first compound 0.01 µM). Moreover, the results for the relative viability in assay [4] (first compound 0.03162 µM) and in assay [4] (first compound 0.1 µM) were 0.475 and 0.617, respectively.
Consider HOP-62, for which the relative viability in assay [1] (first compound 0.01 µM) was 0.325; in assay [1] (first compound 0.03162 µM), 0.251; in assay [1] (first compound 0.1 µM), 0.311; in assay [1] (first compound 1 µM), 0.281; in assay [2] (first compound 0.01 µM), 0.405; in assay [2] (first compound 0.03162 µM), 0.39. The relative viability in assay [2] (first compound 0.1 µM) came out at 0.427; in assay [2] (first compound 1 µM), 0.368; in assay [3] (first compound 0.01 µM), 0.435; in assay [3] (first compound 0.03162 µM), 0.424; in assay [3] (first compound 0.1 µM), 0.49; in assay [3] (first compound 1 µM) it was 0.45. Further, the relative viability in assay [4] (first compound 0.001 µM) was determined as 0.899; in assay [4] (first compound 0.003162 µM), 1.02; in assay [4] (first compound 0.01 µM) it was 0.93; in assay [4] (first compound 0.03162 µM), 0.794; in assay [4] (first compound 0.1 µM), 0.814.
Take NCI-H2009: the relative viability in assay [1] (first compound 0.01 µM) is 1.15; in assay [1] (first compound 0.03162 µM), 0.944; in assay [1] (first compound 0.1 µM), 1.09; in assay [1] (first compound 0.3162 µM), 0.946; in assay [1] (first compound 1 µM), 0.942; in assay [2] (first compound 0.01 µM), 0.275. Also, the relative viability in assay [2] (first compound 0.03162 µM) turned out to be 0.266; in assay [2] (first compound 0.1 µM), 0.256; in assay [2] (first compound 0.3162 µM) it was 0.307; in assay [2] (first compound 1 µM), 0.242; in assay [3] (first compound 0.01 µM), 0.119; in assay [3] (first compound 0.03162 µM) it was 0.203. Moreover, the relative viability was 0.19 in assay [3] (first compound 0.1 µM); 0.105 in assay [3] (first compound 0.3162 µM); 0.24 in assay [3] (first compound 1 µM); 1.12 in assay [4] (first compound 0.001 µM); 1.13 in assay [4] (first compound 0.003162 µM); 1.19 in assay [4] (first compound 0.01 µM). Further, the figures for the relative viability in assay [4] (first compound 0.03162 µM) and in assay [4] (first compound 0.1 µM) were 0.769 and 0.251, respectively.
